From patent US12016884B2, “Adipose derived stem cell exosomes and uses thereof” (UNIVERSITY OF SOUTH FLORIDA, priority 2016, dated 2024)
Entries after “also recorded” stand apart in the source; their conditions may differ.

Test system: human dermal fibroblast (HDF) cells
Assay: ECIS (electric cell-substrate impedance sensing) wound healing assay
Type: cell-based
Conditions: Dynasore about 50 μM added to media with 20 μg exosomes (FIG. 9)
Method: ECIS assays: The ECIS or electric cell-substrate impedance sensing instrument (Applied Biophysics) recorded the impedance on electrically wounded hHDF to detect the migratory response. Briefly, 200 μl of cell suspension were seeded per well of 8W1E ECIS array (5×10^4 cells per well) coated with about 1% gelatin. After cells were confluent in the incubator, the ECIS chambers were mounted to the ECIS system. […] Arrays were then washed with medium under the microscope to remove any dead cells on the electrodes. Thereafter, the wound healing process was determined in real-time by measuring the recovery of electrical impedance, an indicator of the surrounding viable fibroblast cells migrating into the wounded area. […]
Briefly, HDF cells on the micro-electrods of the ECIS wells were killed with a high electrical voltage. Subsequently, the migration of viable cells onto the wounded microelectrodes was measured in real-time by electrical resistance in the presence of bFGF ([…]), about 10 μg/mL exosomes, and about 20 μg/mL exosome respectively. The percentage of recovery was calculated by the difference in the resistance of each time point and the resistance of the first time point after wounding divided by the resistance before the wounding. […]

## O=C(N/N=C/c1ccc(O)c(O)c1)c1cc2ccccc2cc1O [Dynasore]
  effect on exosome-driven cell migration in ECIS: blocked the cell migratory effect of exosomes; also recorded: greatly attenuate cell migration; also recorded: inhibition of migration
